In patent publication US20050054653A1, “Pteridine derivatives, method of producing them and their application” (Faustus Forschungs Cie. Translational Cancer Research GmbH, priority 2002, published 2005):

Experiments:
Type in all cases: cell-based
COLO 205 = assay: Growth inhibition of human tumor cell line COLO 205; conditions: COLO 205 colon carcinoma
From the text: (§1) FIG. 1 is a representation of the IC50 values of the growth inhibition when using the compounds E288, E289 and E499 on the human tumor cell lines COLO 205 and NCI-H460.
(§2) Further in-vitro results of the compounds according to the invention E288 (6-chloro-2-piperazino-4,7-dithiazolidino-pteridine) and E289 (6-methoxy-2-piperazino-4,7-dithiazolidino-pteridine) are summarized in the following in comparison to E499 (6-chloro-2-piperazino-4,7-dipyrrolidino-pteridine) (all IC50 figures are described in [μM]).
(§3) This includes the human cell lines A431 ([…]), OVCAR-3 (ovarian carcinoma), BT-549 and MCF-7 (mammary carcinoma), SK-MEL-28 and SK-MEL-5 (melanoma), SW 620 and HCT-15 (colon), A549 (lung carcinoma) as well as the glioblastoma cell line C6 of the rat.

NCI-H460 = assay: Growth inhibition of human tumor cell line NCI-H460; conditions: NCI-H460 bronchial carcinoma
From the text: as §1, §2, §3

human cell line LXFL529L = assay: Proliferation assay (sulforhodamin B assay), growth inhibition of tumor cells; conditions: LXFL 529L
Method: The inhibition of the growth of tumor cells due to the compounds according to the invention was determined on the human cell line LXFL529L. As a proliferation assay the sulforhodamin B assay as described by Skehan et al. (J. Natl. Cancer Inst. 82:1107-1112 (1990)) was used.

Structure (SMILES) | IC50 (COLO 205) | IC50 (NCI-H460) | IC50 (human cell line LXFL529L) | also measured
Clc1nc2c(N3CCSC3)nc(N3CCNCC3)nc2nc1N1CCSC1 [E288, 6-Chloro-2-Piperazino-4,7-Dithiazolidino-Pteridine] | 6.19 µM | 18.2 µM |  | 
COc1nc2c(N3CCSC3)nc(N3CCNCC3)nc2nc1N1CCSC1 [E289, 6-Methoxy-2-Piperazino-4,7-Dithiazolidino-Pteridine] | 9.64 µM | 13.9 µM |  | 
Clc1nc2c(N3CCCC3)nc(N3CCNCC3)nc2nc1N1CCCC1 [E499, 6-Chloro-2-Piperazino-4,7-Dipyrrolidino-Pteridine] |  |  |  | IC50 (COLO 205; Homo sapiens): 9.75 µM; IC50 (NCI-H460; Homo sapiens): 31.6 µM
COc1nc2c(N3CCCC3)nc(N3CCNCC3)nc2nc1N1CCCC1 [E 293, 6-Methoxy-2-Piperazino-4,7-Dipyrrolidino-Pteridine] |  |  | 3.4 ± 1 µM | 
CSc1nc2c(N3CCCC3)nc(N3CCNCC3)nc2nc1N1CCCC1 [E 294, 6-Methylthio-2-Piperazino-4,7-Dipyrrolidino-Pteridine] |  |  | 3 ± 0.3 µM | 
